This passage reports TGI results from PubChem BioAssay (NCI).

Test systems include HOP-62 NSCLC; RPMI-8226 leukemia; NCI-H226 lung; OVCAR-3 ovarian; A549 NSCLC; NCI-H460 lung; HL-60(TB) leukemia; OVCAR-4 ovarian; K-562 leukemia; BT-549 breast; LOX IMVI melanoma; A498 renal; CCRF-CEM leukemia; SNB-75 CNS; HCT-15 colon; 786-0 renal; SF-268 CNS; NCI-H23 lung; MDA-N; ACHN renal.
What all share (test): NCI tumour cell line growth inhibition, 48 h

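Tested at 5 concentrations; 48 h exposure; 96-well plates; endpoints linearly interpolated, else capped at highest concentration. TGI: total growth inhibition.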

In the case of `O=c1[nH]c2c(c(=O)[nH]1)SC(c1ccccc1)C2` (stereo not given), the TGI with HOP-62 NSCLC, with RPMI-8226 leukemia, in the assay on NCI-H226 lung, with OVCAR-3 ovarian, in the assay on A549 NSCLC and in the assay with NCI-H460 lung was greater than 100 µM each time. Moreover, the TGI in the assay on HL-60(TB) leukemia, in the assay on OVCAR-4 ovarian, with K-562 leukemia, in the assay with BT-549 breast, in the assay with LOX IMVI melanoma and in the assay with A498 renal was greater than 100 µM each time. Also, the TGI in the assay on CCRF-CEM leukemia, in the assay with SNB-75 CNS, with HCT-15 colon, in the assay on 786-0 renal, in the assay with SF-268 CNS and in the assay with NCI-H23 lung was greater than 100 µM throughout. Moreover, the TGI in the assay with MDA-N and in the assay with ACHN renal was greater than 100 µM in each case.
In the case of `CN1CCC2(c3ccccc3)CC(=O)/C(=C/c3ccc(Cl)c(Cl)c3)C1C2` (stereo not given), the TGI in the assay on HOP-62 NSCLC was found to be 12.3 µM; with RPMI-8226 leukemia it was 5.13 µM; with NCI-H226 lung, 4.69 µM; in the assay on OVCAR-3 ovarian it was 9.59 µM; in the assay on A549 NSCLC, 10.9 µM; in the assay on NCI-H460 lung it was 5.94 µM. Moreover, the TGI in the assay with HL-60(TB) leukemia amounted to 3.46 µM; in the assay on OVCAR-4 ovarian, 7.21 µM; in the assay on K-562 leukemia, 7.28 µM; in the assay on BT-549 breast, 6.83 µM; in the assay with LOX IMVI melanoma, 3.34 µM; with A498 renal it was 12.8 µM. In addition, the TGI in the assay with CCRF-CEM leukemia came out at 5.15 µM; in the assay on SNB-75 CNS it was 11.2 µM; in the assay with HCT-15 colon, 4.59 µM; in the assay on 786-0 renal it was 5.35 µM; in the assay on SF-268 CNS it was 3.73 µM; in the assay on NCI-H23 lung, 8.45 µM. Further, the TGI amounted to 13.9 µM in the assay on MDA-N and 3.17 µM in the assay on ACHN renal.
Regarding `C=C(C)C1CC[C@@](C)(O)[C@H](C#N)C1` (stereo not given in full), the TGI in the assay with HOP-62 NSCLC, with RPMI-8226 leukemia, with NCI-H226 lung, in the assay on OVCAR-3 ovarian, with A549 NSCLC and in the assay with NCI-H460 lung was greater than 100 µM each time. In addition, the TGI in the assay on HL-60(TB) leukemia, with OVCAR-4 ovarian, with K-562 leukemia, with BT-549 breast, with LOX IMVI melanoma and in the assay on A498 renal was greater than 100 µM throughout. Moreover, the TGI with CCRF-CEM leukemia, in the assay with SNB-75 CNS, with HCT-15 colon, with 786-0 renal, in the assay on SF-268 CNS and in the assay with NCI-H23 lung was greater than 100 µM each time. For the same compound, the TGI in the assay on MDA-N and in the assay with ACHN renal was greater than 100 µM in each case.
Take `CC(=O)NS(=O)(=O)c1ccc(NCc2cccc3c(=O)c4ccc(Cl)cc4oc23)cc1`: the TGI was 96.8 µM with HOP-62 NSCLC; greater than 100 µM in the assay on RPMI-8226 leukemia; greater than 100 µM with NCI-H226 lung; greater than 93.3 µM in the assay with OVCAR-3 ovarian; greater than 100 µM with A549 NSCLC; 51 µM in the assay on NCI-H460 lung. Also, the TGI in the assay with HL-60(TB) leukemia was 5.43 µM; in the assay with OVCAR-4 ovarian, greater than 100 µM; with K-562 leukemia it was greater than 100 µM; in the assay with BT-549 breast it was greater than 100 µM; with LOX IMVI melanoma it was greater than 100 µM; in the assay on A498 renal, greater than 100 µM. In addition, the TGI in the assay with CCRF-CEM leukemia is greater than 86.7 µM; in the assay with SNB-75 CNS, greater than 100 µM; in the assay on HCT-15 colon it was greater than 55.4 µM; in the assay with 786-0 renal it was greater than 100 µM; in the assay on SF-268 CNS it was greater than 100 µM; in the assay with NCI-H23 lung, greater than 71.6 µM. For the same compound, the TGI in the assay on MDA-N and with ACHN renal was greater than 100 µM in each case.
On to `COc1ccc(-c2sc(Br)c3c2C(=O)C2OC(=O)NC32)cc1OC` (stereo not given), for which the TGI with HOP-62 NSCLC, with RPMI-8226 leukemia, with NCI-H226 lung, in the assay with OVCAR-3 ovarian, with A549 NSCLC and in the assay on NCI-H460 lung was greater than 100 µM each time. In addition, the TGI in the assay on HL-60(TB) leukemia, with OVCAR-4 ovarian, in the assay with K-562 leukemia, in the assay with BT-549 breast, with LOX IMVI melanoma and in the assay on A498 renal was greater than 100 µM in each case. Moreover, the TGI with CCRF-CEM leukemia, in the assay on SNB-75 CNS, in the assay on HCT-15 colon, with 786-0 renal, with SF-268 CNS and in the assay on NCI-H23 lung was greater than 100 µM throughout. Besides, the TGI in the assay with MDA-N and in the assay on ACHN renal was greater than 100 µM throughout.
With `COC(=O)c1cc(CC2Cc3cc4c(cc3C2=O)CCC4)cc2c1CCC2` (stereo not given), the TGI with HOP-62 NSCLC, with RPMI-8226 leukemia, with NCI-H226 lung, in the assay on OVCAR-3 ovarian, with A549 NSCLC and with NCI-H460 lung was greater than 100 µM each time. Also, the TGI with HL-60(TB) leukemia, with OVCAR-4 ovarian, in the assay with K-562 leukemia, in the assay on BT-549 breast, with LOX IMVI melanoma and in the assay with A498 renal was greater than 100 µM throughout. Also, the TGI with CCRF-CEM leukemia, with SNB-75 CNS, in the assay on HCT-15 colon, in the assay on 786-0 renal, in the assay with SF-268 CNS and in the assay on NCI-H23 lung was greater than 100 µM throughout. In addition, the TGI in the assay with MDA-N and in the assay on ACHN renal was greater than 100 µM throughout.
As to `O=C1Nc2ccc(Br)cc2/C1=N/S(=O)(=O)O`, the TGI in the assay on HOP-62 NSCLC was greater than 100 µM; with RPMI-8226 leukemia it was 47.6 µM; in the assay with NCI-H226 lung, greater than 100 µM; with OVCAR-3 ovarian it was greater than 100 µM; in the assay with A549 NSCLC, 78.9 µM; in the assay on NCI-H460 lung, greater than 100 µM. The TGI was 46.7 µM in the assay with HL-60(TB) leukemia; 44.1 µM with OVCAR-4 ovarian; 42.6 µM with K-562 leukemia; greater than 100 µM with BT-549 breast; 28 µM in the assay on LOX IMVI melanoma; greater than 100 µM with A498 renal. The TGI in the assay with CCRF-CEM leukemia was 35.6 µM; with SNB-75 CNS, greater than 100 µM; in the assay on HCT-15 colon it was greater than 100 µM; with 786-0 renal, 68.2 µM; in the assay with SF-268 CNS, greater than 100 µM; in the assay on NCI-H23 lung, greater than 100 µM. Besides, the TGI in the assay with MDA-N was 26.6 µM; in the assay on ACHN renal, greater than 100 µM.
